# Measurements reported in patent publication US10835500B2, “Medicament for accelerated wound healing” (Symrise AG, priority 2014, dated 2020).
# pEC50, pIC50: −log10 of the molar value. Entries after “also recorded” stand apart in the source; their conditions may differ. Like-named read-outs stand apart in the source and are kept apart here.
# Experiments:
# HaCaT cells [1] = experiment: In vitro wound scratch assay, HaCaT cells; assay type: cell-based, human; conditions: for faster closing of the scratch: HaCaT cells, 500 μM, observed for two days
# Source text: The MAP kinases p38 and ERK1/2 are often associated with increased proliferation and migration in epidermal wound healing. For this reason, in a further physiological experiment, the effect of Sandalore® on “wound healing” of a confluent cell layer of HaCaT cells or primary keratinocytes was investigated. For this purpose, the wound scratch assay was used, which is an established in vitro method for initial investigations of wound healing processes in keratinocytes.
# In order to investigate the role of the OR2AT4 receptor in this effect, a test was conducted to determine whether the two antagonists Oxyphenylon and Phenirat could again reduce the “wound healing” increased by Sandalore®. For this purpose, Sandalore® was mixed with one of the antagonists each in the same ratio, and the effect on “wound healing” of the HaCaT cells was again observed for 48 hours. […] The two antagonists alone had no effect on the “wound healing” (FIG. 18d). The role of the MAP kinases p38 and ERK1/2 was investigated by means of specific inhibitors of the kinases. For p38 MAPK, the […] SB203580 was used, and for ERK1/2 MAPK, the […] U0126 was used. […] The two inhibitors alone had no effect on the wound healing (FIG. 18d).
# Effect of Sandalore® stimulation on human keratinocytes in an in vitro “wound healing” assay. Investigation of the “wound healing rate” of A) primary keratinocytes and B) HaCaT cells by means of a wound scratch assay in the presence of Sandalore® (500 μM) or 0.1% DMSO as a control. Left: Transmitted light images of the “wound” observed at various times. The growth margin of the cells was surrounded in black. Scale: 200 μm. Right: Quantitative evaluation of the wound scratch assay. The areas of the wounds were measured and compared to the initial wound (0 h). Mean values including standard error. Mann-Whitney U test; n=4 experiments. *: p<0.05; ***: p<0.001. C) Wound scratch assay in the presence of Sandalore® (500 μM) and one of the antagonists Oxyphenylon (500 μM) or Phenirat (500 μM) respectively, the p38 MAPK inhibitor 5B203580 (10 μM), or the ERK1/2 MAPK inhibitor U0126 (10 μM). The measured wound areas of the treated cells (after 48-hour stimulation) were compared to the control (0.1% DMSO). Mean values including standard error. Kruskal-Wallis test with multiple comparison; n=3 experiments. *: p<0.05. D) Controls for the wound scratch assay with Oxyphenylon (500 μM), Phenirat (500 μM), 5B203580 (10 μM), or U0126 (10 μM) carried out under C). The measured wound areas of the treated cells were compared to the control (0.1% DMSO). Mean value included.
# HaCaT cells [2] = experiment: Calcium imaging in HaCaT cells; assay type: cell-based, human; conditions: for calcium signals on repeated stimulation: repeated application (500 μM in FIG. 9); for pEC50: calcium signal amplitude, read-out: ECR50R value
# Procedure: In the fourth application, saturation occurred at approx. 500 μM (FIG. 9d). The ECR50R value was 430 μM of Sandalore® in the first application and 112 μM of Sandalore® in the fourth application.
# The Sandalore®-induced signal cascade in HaCaT cells and primary keratinocytes was pharmacologically characterized using the calcium imaging technique and specific blockers of signal cascade proteins. An investigation was first conducted in order to determine whether the calcium signals are caused by calcium inflow from the extracellular space. For this purpose, a calcium-free extracellular solution was used with a calcium chelator (EGTA) added. […] In order to investigate the role of adenylyl cyclase, the specific blockers SQ-22536 and MDL-12330A were used. […] The efficacy of the blockers was tested in this case with histamine, which activated the PLC signalling pathway (FIG. 11c). […]
# In order to characterize the antagonists, HaCaT cells were first repeatedly stimulated with Sandalore® (1 mM). On the third application, costimulation (1:1) with Sandalore® and one of the antagonists took place. […] Based on this, dose-dependent characterization of inhibition was to be carried out. For this purpose, Sandalore® and the antagonists were costimulated with different concentrations.
# Effect of the OR2AT4 ligand Sandalore® on intracellular calcium concentration of cultivated keratinocytes. […] 100 μM of ATP was used at the end of each measurement as a positive control stimulus. Right: Quantitative evaluation of calcium signals in 4-time application of Sandalore® (500 μM). Shown are the mean values of the individual applications including standard error. Mann-Whitney U test. *: p<0.05. C) and D): dose-dependent activation of HaCaT cells in calcium imaging experiments. Shown are the mean amplitudes including standard error at various concentrations in the first (C) and fourth (D) Sandalore® application. Number of cells measured: 0.0125 mM (39), 0.025 mM (30), 0.1 mM (46), 0.5 mM (34), 1 mM (63), 2 mM (41), 10 mM (36).
# A) Representative calcium imaging traces of HaCaT cells (left) and primary keratinocytes (right) incubated with the gap junction blocker 1-octanol (500 μM) and then repeatedly stimulated with Sandalore® (500 μM, horizontal bars) (blue trace). […] 100 μM of ATP was used at the end of each measurement as a positive control stimulus. Quantitative evaluation of HaCaT cells (B) and primary keratinocytes (C) incubated with the gap junction blockers 1-octanol (500 μM) or carbenoxolone (10 μM) and then repeatedly stimulated with Sandalore® (500 μM) or Lyral (1 mM) in calcium imaging experiments. Shown are the mean values of the individual applications including standard error relative to the control measurements (Sandalore® application without blocker). Mann-Whitney U test. Number of cells measured: Sandalore®+1-octanol (HaCaT (110), keratinocytes (26)); Sandalore®+carbenoxolone: HaCaT (74); Lyral+carbenoxolone: HaCaT (43). ***: p<0.001.
# Pharmacological characterization of Sandalore®-induced signal cascade in human keratinocytes. A)-D). Shown are representative calcium imaging traces of primary keratinocytes in the presence of a blocker (blue). The horizontal bars correspond to the application times. 100 μM of ATP was used at the end of each measurement as a positive control stimulus. A) Measurement with calcium-free extracellular solution (+10 mM EGTA). B) Measurement with the adenylyl cyclase blocker SQ-22536 (100 μM). C) Use of the phospholipase-C blocker U-73122 (10 μM). 100 μM of histamine was taken as a positive control. D) Measurement with the CNG channel blocker L-cis-diltiazem (150 μM). E) Overview of pharmacological measurement of HaCaT cells and primary keratinocytes (Kera). The mean amplitudes relative to the control measurements (dashed line) are indicated. MDL-12330A (40 μM). […]
Structure (SMILES),faster closing of the scratch (HaCaT cells [1]),calcium signals on repeated stimulation (HaCaT cells [2]; HaCaT cells),"share of cells repeatedly stimulated (HaCaT cells [2]; HaCaT cells, calcium imaging)","calcium signals on repeated stimulation (HaCaT cells [2]; HaCaT cells, listed as Sandalore)",concentration at which dose-dependent activation begins (HaCaT cells [2]; amplitude of the first application),pEC50 (HaCaT cells [2]; first application),pEC50 (HaCaT cells [2]; fourth application),concentration from which saturation is reached (HaCaT cells [2]; first application),concentration at which saturation occurred (HaCaT cells [2]; fourth application),"Sandalore-increased wound healing on coincubation (HaCaT cells [1]; HaCaT, 48 hours, Sandalore 500 μM + antagonist 500 μM or inhibitor 10 μM)","effect of the substance alone on wound healing (HaCaT cells [1]; HaCaT, antagonist 500 μM or inhibitor 10 μM alone)",inhibitory action on Sandalore-induced calcium signals (HaCaT cells [2]; Sandalore 500 μM + antagonist 100 μM),"amplitude heights, % of the control amplitudes (HaCaT cells [2]; Sandalore 500 μM + antagonist 250 μM)","calcium signals, % of the control amplitude (Sandalore without antagonists) (HaCaT cells [2]; Sandalore 500 μM + antagonist 500 μM)","blocking of Sandalore-induced calcium signals (HaCaT cells [2]; antagonist 500 μM, Sandalore 750 μM)","inhibition of Sandalore-induced calcium signals (HaCaT cells [2]; antagonist 500 μM, Sandalore 1 mM)","pIC50 (HaCaT cells [2]; inhibition of calcium signals induced by 500 μM Sandalore, read-out: IC50 values (mean inhibitory concentrations))","effect on Sandalore-induced calcium signals on coapplication (HaCaT cells [2]; third application, costimulation 1:1 with Sandalore 1 mM)"
CC1=CCC(CCC(C)CO)C1(C)C (centres unmarked) [Brahmanol®],26%,significant sensitization,,,,,,,,,,,,,,,,
CC1=CCC(CCC(C)C(C)O)C1(C)C (centres unmarked) [Sandalore®],26%,significant sensitization; also recorded: induced calcium signals,80-90%,significant sensitization,100 µM,3.37,3.95,approx. 2 mM,approx. 500 μM,,,,,,,,,
CC(=O)CCc1ccc(O)cc1 [Oxyphenylon],,,,,,,,,,reduced “wound healing” to the normal level,no effect,disappeared completely,39%,8%,decreased,completely eliminated,3.76,significant reduction
